According to ChEMBL document CHEMBL4118122, “Identification and biological evaluation of thiazole-based inverse agonists of RORγt” (Bioorg Med Chem Lett, 2018):

Columns and labels:
[1] = molecular target: T1, Nuclear receptor ROR-beta (Homo sapiens, UniProt Q92753); assay: Inverse agonist activity at human GAL4 DBD-fused RORbeta LBD (201 to 452 residues) expressed in HEK293T cells assessed as reduction in ROR mediated transcriptional activity after 24 hrs by dual glo luciferase reporter gene assay; assay type: cell-based
T1 sequence (Q92753 whole entry): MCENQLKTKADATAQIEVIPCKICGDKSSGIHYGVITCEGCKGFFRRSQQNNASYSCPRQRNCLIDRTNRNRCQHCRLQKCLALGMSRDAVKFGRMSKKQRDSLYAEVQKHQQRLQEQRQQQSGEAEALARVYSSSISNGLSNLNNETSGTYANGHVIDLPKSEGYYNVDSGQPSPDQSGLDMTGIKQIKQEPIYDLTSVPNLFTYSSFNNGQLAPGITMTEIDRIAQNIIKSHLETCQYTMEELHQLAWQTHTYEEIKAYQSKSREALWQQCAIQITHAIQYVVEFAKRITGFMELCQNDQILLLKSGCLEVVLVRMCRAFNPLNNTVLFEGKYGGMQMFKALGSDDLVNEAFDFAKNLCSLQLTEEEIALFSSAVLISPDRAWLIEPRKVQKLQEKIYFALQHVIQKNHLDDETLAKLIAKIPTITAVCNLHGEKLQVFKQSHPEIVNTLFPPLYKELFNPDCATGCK

[2] = molecular target: 5-hydroxytryptamine receptor 1B (Rattus norvegicus) (UniProt P28564); assay: Displacement of [125I]-CYP from rat brain 5-HT1B receptor at 10 uM after 120 mins by scintillation counting analysis relative to control
[3] = molecular target: C-X-C chemokine receptor type 2 (Homo sapiens) (UniProt P25025); assay: Displacement of [125I]IL-8 from human recombinant CXCR2 receptor at 1 uM after 60 mins by scintillation counting analysis relative to control
[4] = molecular target: Neuropeptide Y receptor type 2 (Homo sapiens) (UniProt P49146); assay: Displacement of [125I]peptide YY from human Y2 receptor at 1 uM after 120 mins by scintillation counting analysis relative to control
[5] = molecular target: 5-hydroxytryptamine receptor 3A (Homo sapiens) (UniProt P46098); assay: Displacement of [3H]BRL 43694 from human recombinant 5-HT3 receptor at 1 uM after 120 mins by scintillation counting analysis relative to control
[6] = molecular target: 5-hydroxytryptamine receptor 5A (Homo sapiens, UniProt P47898); assay: Displacement of [3H]LSD from human recombinant 5-HT5a receptor at 1 uM after 120 mins by scintillation counting analysis relative to control
[7] = molecular target: 5-hydroxytryptamine receptor 6 (Homo sapiens, UniProt P50406); assay: Displacement of [3H]LSD from human recombinant 5-HT6 receptor at 1 uM after 120 mins by scintillation counting analysis relative to control
Rattus norvegicus = species: Rattus norvegicus; assay: Displacement of [3H]D 888 from rat brain L-type calcium channel verapamil binding site at 1 uM after 120 mins by scintillation counting analysis relative to control
[8] = molecular target: Sodium-dependent noradrenaline transporter (Homo sapiens, UniProt P23975); assay: Displacement of [3H]nisoxetine from recombinant human norepinephrine transporter at 1 uM after 120 mins by scintillation counting analysis relative to control
[9] = molecular target: Adrenergic receptor alpha-1 (Rattus norvegicus, UniProt P15823+P23944+P43140); assay: Displacement of [3H]-prazosin from rat alpha1 adrenoceptor after 60 mins by scintillation counting analysis; assay type: protein assay
Mu-type opioid receptor = Mu-type opioid receptor (Homo sapiens, UniProt P35372); assay: Displacement of [3H]DAMGO from human recombinant mu receptor after 120 mins by scintillation counting analysis
[10] = Displacement of [3H]D 888 from rat brain L-type calcium channel verapamil binding site after 120 mins by scintillation counting analysis
[11] = Displacement of [125I]alpha-dendrotoxin from rat brain voltage-gated K channel after 60 mins by scintillation counting analysis
[12] = molecular target: Aurora kinase B (Homo sapiens) (UniProt Q96GD4); assay: Inhibition of recombinant full length His-tagged human Aurora B expressed in baculovirus expression system at 10 uM in presence of ATP relative to control
[13] = molecular target: Calcium/calmodulin-dependent protein kinase type II subunit alpha (Homo sapiens) (UniProt Q9UQM7); assay: Inhibition of CamK2alpha (unknown origin) at 10 uM in presence of ATP relative to control
[14] = molecular target: Ephrin type-A receptor 2 (Homo sapiens) (UniProt P29317); assay: Inhibition of recombinant GST-tagged human EPHA2 (560 to 976 residues) cytoplasmic domain expressed in baculovirus expression system at 10 uM in presence of ATP relative to control
[15] = molecular target: Mitogen-activated protein kinase 1 (Homo sapiens) (UniProt P28482); assay: Inhibition of recombinant GST-tagged human ERK2 expressed in Escherichia coli at 10 uM in presence of ATP relative to control
[16] = molecular target: NT-3 growth factor receptor (Homo sapiens) (UniProt Q16288); assay: Inhibition of recombinant full length His-tagged human NTRK3 (510 to 825 residues) cytoplasmic domain expressed in baculovirus expression system at 10 uM in presence of ATP relative to control
[17] = Thermodynamic solubility of the compound in 30 mM phosphate buffer at 10 mM at pH 2 after 2 to 5 days by UV-HPLC analysis; assay type: physicochemical; conditions: read-out: Therm_solubility
Cytochrome P450 1A2 = molecular target: T2, Cytochrome P450 1A2 (Homo sapiens, UniProt P05177); assay: Inhibition of CYP1A2 (unknown origin); assay type: ADME
T2 sequence (P05177 whole entry): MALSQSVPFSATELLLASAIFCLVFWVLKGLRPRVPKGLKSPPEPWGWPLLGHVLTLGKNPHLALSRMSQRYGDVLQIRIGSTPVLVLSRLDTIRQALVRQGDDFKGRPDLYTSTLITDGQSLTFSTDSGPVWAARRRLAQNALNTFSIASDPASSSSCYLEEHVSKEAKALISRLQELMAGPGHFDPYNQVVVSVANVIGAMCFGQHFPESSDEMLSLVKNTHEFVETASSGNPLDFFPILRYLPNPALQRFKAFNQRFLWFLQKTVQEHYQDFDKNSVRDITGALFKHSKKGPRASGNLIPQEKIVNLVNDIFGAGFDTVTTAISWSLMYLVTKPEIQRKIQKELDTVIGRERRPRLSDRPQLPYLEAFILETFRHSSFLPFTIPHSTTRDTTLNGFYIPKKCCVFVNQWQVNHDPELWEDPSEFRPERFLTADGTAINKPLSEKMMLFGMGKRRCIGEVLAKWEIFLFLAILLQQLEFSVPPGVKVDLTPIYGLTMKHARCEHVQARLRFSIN

[18] = Cmax in Sprague-Dawley rat at 5 mg/kg, po; assay type: ADME, organism-based; set-up: dose 5 mg/kg, route oral; conditions: in vivo
[19] = molecular target: Proto-oncogene tyrosine-protein kinase receptor Ret (Homo sapiens) (UniProt P07949); assay: Inhibition of recombinant GST-tagged human RET cytoplasmic domain (658 to 1114 residues) expressed in baculovirus expression system at 10 uM in presence of ATP relative to control
[20] = molecular target: Ribosomal protein S6 kinase alpha-2 (Homo sapiens) (UniProt Q15349); assay: Inhibition of recombinant full length GST-tagged human RSK3 expressed in insect cells at 10 uM in presence of ATP relative to control
Sequence of Ribosomal protein S6 kinase alpha-2 (Homo sapiens) (Q15349 whole entry): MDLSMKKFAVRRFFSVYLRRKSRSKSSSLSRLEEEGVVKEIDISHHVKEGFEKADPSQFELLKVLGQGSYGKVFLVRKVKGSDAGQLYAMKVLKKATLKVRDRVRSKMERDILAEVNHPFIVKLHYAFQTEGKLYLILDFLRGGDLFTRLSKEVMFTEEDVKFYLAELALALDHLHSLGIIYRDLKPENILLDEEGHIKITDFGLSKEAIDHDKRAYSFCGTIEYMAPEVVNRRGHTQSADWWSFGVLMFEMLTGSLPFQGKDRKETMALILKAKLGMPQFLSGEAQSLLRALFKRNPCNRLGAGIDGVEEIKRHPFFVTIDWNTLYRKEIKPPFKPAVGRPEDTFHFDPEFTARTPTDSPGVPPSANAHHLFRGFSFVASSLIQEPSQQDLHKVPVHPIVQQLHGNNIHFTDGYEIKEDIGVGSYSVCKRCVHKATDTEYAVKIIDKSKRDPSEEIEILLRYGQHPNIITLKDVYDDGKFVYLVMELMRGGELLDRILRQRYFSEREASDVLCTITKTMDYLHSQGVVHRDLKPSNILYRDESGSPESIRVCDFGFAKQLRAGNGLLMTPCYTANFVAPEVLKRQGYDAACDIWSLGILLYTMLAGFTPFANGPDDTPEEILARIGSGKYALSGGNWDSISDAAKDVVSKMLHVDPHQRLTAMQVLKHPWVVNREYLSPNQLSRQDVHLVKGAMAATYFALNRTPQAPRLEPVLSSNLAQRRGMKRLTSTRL

Sequence of Neuropeptide Y receptor type 2 (Homo sapiens) (P49146 whole entry): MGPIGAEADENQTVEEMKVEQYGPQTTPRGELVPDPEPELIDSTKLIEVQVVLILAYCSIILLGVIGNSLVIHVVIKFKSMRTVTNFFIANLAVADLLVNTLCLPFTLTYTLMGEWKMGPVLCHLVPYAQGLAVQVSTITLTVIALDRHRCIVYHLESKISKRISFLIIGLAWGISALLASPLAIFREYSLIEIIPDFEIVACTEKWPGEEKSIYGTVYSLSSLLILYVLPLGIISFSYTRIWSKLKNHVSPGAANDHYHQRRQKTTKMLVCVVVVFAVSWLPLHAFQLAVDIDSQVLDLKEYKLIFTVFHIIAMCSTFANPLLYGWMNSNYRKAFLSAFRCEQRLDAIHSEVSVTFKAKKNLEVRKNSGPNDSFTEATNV
Sequence of Sodium-dependent noradrenaline transporter (P23975 whole entry): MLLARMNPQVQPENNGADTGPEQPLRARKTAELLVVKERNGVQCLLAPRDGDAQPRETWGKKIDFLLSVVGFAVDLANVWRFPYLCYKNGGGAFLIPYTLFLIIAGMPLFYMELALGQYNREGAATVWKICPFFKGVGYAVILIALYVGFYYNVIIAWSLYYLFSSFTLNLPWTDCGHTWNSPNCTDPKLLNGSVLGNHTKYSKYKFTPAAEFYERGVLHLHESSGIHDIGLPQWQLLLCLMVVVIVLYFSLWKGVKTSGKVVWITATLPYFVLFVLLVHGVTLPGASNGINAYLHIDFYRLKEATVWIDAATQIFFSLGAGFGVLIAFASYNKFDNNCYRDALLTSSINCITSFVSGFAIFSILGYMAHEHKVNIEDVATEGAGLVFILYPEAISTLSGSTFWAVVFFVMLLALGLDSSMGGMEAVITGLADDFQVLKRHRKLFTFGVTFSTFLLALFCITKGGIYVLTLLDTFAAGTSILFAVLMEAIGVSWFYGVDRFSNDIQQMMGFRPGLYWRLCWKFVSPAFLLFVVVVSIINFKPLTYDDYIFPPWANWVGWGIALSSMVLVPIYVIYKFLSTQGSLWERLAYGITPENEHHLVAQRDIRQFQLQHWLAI
Sequence of Mu-type opioid receptor (P35372 whole entry): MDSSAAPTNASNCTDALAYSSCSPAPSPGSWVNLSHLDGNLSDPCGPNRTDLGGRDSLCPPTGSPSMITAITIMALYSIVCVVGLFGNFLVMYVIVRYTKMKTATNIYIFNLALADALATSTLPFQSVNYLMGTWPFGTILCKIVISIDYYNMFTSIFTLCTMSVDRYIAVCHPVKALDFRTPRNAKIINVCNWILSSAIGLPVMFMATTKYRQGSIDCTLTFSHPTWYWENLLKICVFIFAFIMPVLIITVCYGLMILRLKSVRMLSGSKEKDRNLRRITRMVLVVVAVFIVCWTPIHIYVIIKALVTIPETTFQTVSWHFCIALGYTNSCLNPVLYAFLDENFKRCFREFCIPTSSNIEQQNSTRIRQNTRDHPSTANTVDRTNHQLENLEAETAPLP
Sequence of Mitogen-activated protein kinase 1 (Homo sapiens) (P28482 whole entry, the tested form may be a part): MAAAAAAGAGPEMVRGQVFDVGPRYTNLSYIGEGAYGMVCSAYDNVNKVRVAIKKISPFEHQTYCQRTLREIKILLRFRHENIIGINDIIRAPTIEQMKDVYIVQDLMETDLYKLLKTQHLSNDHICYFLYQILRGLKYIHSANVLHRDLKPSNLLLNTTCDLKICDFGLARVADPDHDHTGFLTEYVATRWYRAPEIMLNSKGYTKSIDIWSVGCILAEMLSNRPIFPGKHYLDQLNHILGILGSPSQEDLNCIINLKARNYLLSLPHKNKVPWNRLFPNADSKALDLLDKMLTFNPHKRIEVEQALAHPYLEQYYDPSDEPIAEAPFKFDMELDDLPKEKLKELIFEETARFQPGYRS
Sequence of Calcium/calmodulin-dependent protein kinase type II subunit alpha (Homo sapiens) (Q9UQM7 whole entry, the tested form may be a part): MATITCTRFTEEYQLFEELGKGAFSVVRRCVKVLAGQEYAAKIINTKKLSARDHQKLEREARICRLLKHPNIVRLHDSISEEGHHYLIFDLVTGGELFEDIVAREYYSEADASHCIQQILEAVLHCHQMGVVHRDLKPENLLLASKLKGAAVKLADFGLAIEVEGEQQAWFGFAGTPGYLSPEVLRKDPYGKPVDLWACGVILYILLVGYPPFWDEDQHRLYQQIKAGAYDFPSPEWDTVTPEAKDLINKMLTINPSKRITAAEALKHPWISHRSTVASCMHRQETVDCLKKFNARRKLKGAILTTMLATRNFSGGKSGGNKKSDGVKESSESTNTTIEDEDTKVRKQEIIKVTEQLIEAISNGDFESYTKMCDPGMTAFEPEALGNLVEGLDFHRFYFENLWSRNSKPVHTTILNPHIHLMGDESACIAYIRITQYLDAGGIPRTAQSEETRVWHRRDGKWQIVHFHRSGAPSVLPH
Sequence of NT-3 growth factor receptor (Homo sapiens) (Q16288 32-839 limits assumed): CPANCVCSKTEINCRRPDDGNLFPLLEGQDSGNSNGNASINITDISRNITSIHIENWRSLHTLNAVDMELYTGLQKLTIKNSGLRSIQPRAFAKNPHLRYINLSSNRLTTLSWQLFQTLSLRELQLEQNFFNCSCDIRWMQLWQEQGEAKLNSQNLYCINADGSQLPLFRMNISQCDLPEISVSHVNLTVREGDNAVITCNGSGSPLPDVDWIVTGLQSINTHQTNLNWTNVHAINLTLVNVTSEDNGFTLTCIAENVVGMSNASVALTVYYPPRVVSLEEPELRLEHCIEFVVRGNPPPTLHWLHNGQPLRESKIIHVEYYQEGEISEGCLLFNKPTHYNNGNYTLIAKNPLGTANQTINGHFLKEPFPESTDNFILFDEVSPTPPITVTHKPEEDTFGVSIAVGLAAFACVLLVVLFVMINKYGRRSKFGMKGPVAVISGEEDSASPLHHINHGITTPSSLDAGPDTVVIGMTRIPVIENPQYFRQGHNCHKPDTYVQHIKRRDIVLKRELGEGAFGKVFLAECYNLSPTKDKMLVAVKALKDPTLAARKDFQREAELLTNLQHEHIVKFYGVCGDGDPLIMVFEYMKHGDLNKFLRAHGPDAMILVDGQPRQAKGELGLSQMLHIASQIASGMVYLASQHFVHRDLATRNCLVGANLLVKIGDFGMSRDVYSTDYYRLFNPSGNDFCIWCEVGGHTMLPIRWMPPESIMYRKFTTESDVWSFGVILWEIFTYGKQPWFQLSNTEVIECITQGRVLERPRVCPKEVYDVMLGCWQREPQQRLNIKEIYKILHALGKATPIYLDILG
Sequence of 5-hydroxytryptamine receptor 6 (P50406 whole entry): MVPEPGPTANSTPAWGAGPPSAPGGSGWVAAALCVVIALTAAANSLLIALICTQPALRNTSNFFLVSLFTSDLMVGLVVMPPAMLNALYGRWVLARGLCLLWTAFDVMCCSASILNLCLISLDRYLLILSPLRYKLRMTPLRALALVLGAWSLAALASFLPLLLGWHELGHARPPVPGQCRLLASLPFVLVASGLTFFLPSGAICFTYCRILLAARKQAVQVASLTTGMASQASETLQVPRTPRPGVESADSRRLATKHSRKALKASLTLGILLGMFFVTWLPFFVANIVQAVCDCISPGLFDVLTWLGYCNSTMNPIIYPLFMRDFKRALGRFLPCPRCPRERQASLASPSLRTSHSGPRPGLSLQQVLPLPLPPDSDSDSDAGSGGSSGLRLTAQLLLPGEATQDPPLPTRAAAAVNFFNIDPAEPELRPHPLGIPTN
Sequence of 5-hydroxytryptamine receptor 3A (Homo sapiens) (P46098 whole entry): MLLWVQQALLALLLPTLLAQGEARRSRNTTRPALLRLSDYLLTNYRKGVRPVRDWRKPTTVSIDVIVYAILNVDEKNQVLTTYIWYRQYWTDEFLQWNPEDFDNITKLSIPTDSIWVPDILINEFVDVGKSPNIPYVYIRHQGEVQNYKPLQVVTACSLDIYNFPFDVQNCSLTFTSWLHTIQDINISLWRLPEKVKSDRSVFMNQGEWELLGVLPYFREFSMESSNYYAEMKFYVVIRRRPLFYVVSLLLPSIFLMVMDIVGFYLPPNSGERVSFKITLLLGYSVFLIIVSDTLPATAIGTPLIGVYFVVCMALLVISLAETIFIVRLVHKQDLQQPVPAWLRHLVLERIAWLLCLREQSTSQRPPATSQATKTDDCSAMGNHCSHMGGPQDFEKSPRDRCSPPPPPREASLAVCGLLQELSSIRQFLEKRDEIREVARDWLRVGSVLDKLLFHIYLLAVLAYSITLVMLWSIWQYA

Compound: CC(C)(C)NS(=O)(=O)c1ccc(-c2sc(C(=O)N[C@H]3C[C@H](C(=O)O)C3)nc2CC2CCCCC2)c2ccccc12
- IC50 [1]: 164 nM
- inhibition [2]: < 10%
- inhibition [3]: < 10%
- inhibition [4]: < 10%
- inhibition [5]: < 10%
- inhibition [6]: < 10%
- inhibition [7]: < 10%
- inhibition (Rattus norvegicus): < 10%
- inhibition [8]: < 10%
- IC50 [9]: 0.25 nM
- IC50 (Mu-type opioid receptor): 1.1 nM
- IC50 [10]: 51 nM
- IC50 [11]: 0.22 nM
- inhibition [12]: 8%
- inhibition [13]: 2%
- inhibition [14]: -7%
- inhibition [15]: -6%
- inhibition [16]: -10%
- solubility thermodynamic at 10000 µM [17]: < 1 µM
- INH (Cytochrome P450 1A2): > 10 µM
- Cmax [18]: 0.13 µg/mL
- inhibition [19]: -3%
- inhibition [20]: -4%
